Laboratory results taken from the RepoRT retention time repository.

Assay: HILIC, Waters ACQUITY UPLC BEH Amide, 100 × 2.1 mm, 1.7 µm; A: water + 0.125% formic acid + 10 mM ammonium formate; B: 5% water + 95% acetonitrile + 0.125% formic acid + 10 mM ammonium formate; gradient (min/%B) 0/100 2/100 7.7/70 9.5/40 10.25/30 12.75/100 17/100
Conditions: stereoisomer not certain

LC retention time [min] | SMILES
2.96 | CCCCCCCCCCCCCCCCCC(=O)OC(CC(=O)[O-])C[N+](C)(C)C [Stearoyl-L-carnitine]
8.1 | CC(C)CC(NC(=O)CCC(N)C(=O)O)C(=O)O (stereo not given) [gamma-Glutamylleucine]
0.94 | Cc1sc(N)c(C(=O)c2cccc(C(F)(F)F)c2)c1C
2.44 | COc1cc2c(cc1OC)C(=O)C(CC1CCN(Cc3ccccc3)CC1)C2 (stereo not given) [Donepezil]
7.51 | NC(=O)c1ccc[n+](C2OC(CO)C(O)C2O)c1 (stereo not given) [Nicotinamide riboside cation]
2.28 | COc1cc(N)c(Cl)cc1C(=O)NC1CCN(CCCOc2ccc(F)cc2)CC1OC (stereo not given) [Cisapride]
3.56 | CNc1ncnc2c1ncn2C1OC(CO)C(O)C1O (stereo not given) [6-Methyladenosine]
0.96 | CC(C)c1ccc2c(c1)c(SC(C)(C)C)c(CC(C)(C)C(=O)O)n2Cc1ccc(Cl)cc1 [MK-886]
1.43 | CC(=O)NCCc1c[nH]c2ccc(O)cc12 [N-Acetyl-5-hydroxytryptamine]
2.18 | Cc1ncc(CO)c(C=O)c1O [Pyridoxal]
3.14 | O=C1CCc2ccc(OCCCCN3CCN(c4cccc(Cl)c4Cl)CC3)cc2N1 [Aripiprazole]
1.98 | Cc1cn(C2OC(CO)C(O)C2O)c(=S)[nH]c1=O (stereo not given) [5-Methyl-2-thiouridine]
3.13 | COC(=O)CCc1ccc(OCC(O)CNC(C)C)cc1 (stereo not given) [Esmolol]
9.47 | NC(CC(=O)O)C(=O)NC(CCC(=O)O)C(=O)O (stereo not given) [Asp-Glu]
8.05 | CC(C)C(NC(=O)CN)C(=O)O (stereo not given) [Gly-val]
4.8 | CN(C)CCc1c[nH]c2ccc(CC3COC(=O)N3)cc12 (stereo not given) [Zolmitriptan]
9.48 | NC(Cc1cnc[nH]1)C(=O)O (stereo not given) [Histidine]
1.87 | CCCCc1oc2ccccc2c1C(=O)c1cc(I)c(OCCN(CC)CC)c(I)c1 [Amiodarone]
1.57 | CC(C)CC(O)C(=O)O (stereo not given) [2-Hydroxy-4-methylpentanoic acid]
1.03 | Cc1c2oc3c(C)ccc(C(=O)NC4C(=O)NC(C(C)C)C(=O)N5CCCC5C(=O)N(C)CC(=O)N(C)C(C(C)C)C(=O)OC4C)c3nc-2c(C(=O)NC2C(=O)NC(C(C)C)C(=O)N3CCCC3C(=O)N(C)CC(=O)N(C)C(C(C)C)C(=O)OC2C)c(N)c1=O (stereo not given) [Actinomycin D]
1.08 | Cc1ncc([N+](=O)[O-])n1CC(O)CCl (stereo not given) [Ornidazole]
8.15 | CN(CC(=O)O)C(=N)N [Creatine]
1 | COc1ccc(-c2cc(=O)c3c(OC)c(OC)c(OC)c(OC)c3o2)cc1OC [Nobiletin]
5.04 | COc1cc(C(=O)NC2CCCNC2)cc(OC)c1OC (stereo not given) [Troxipide]
9.77 | NCC(O)CCC(N)C(=O)O (stereo not given) [delta-Hydroxylysine]

LC retention time [min] | SMILES
4.75 | OCc1cc(C(O)CNCCCCCCOCCCCc2ccccc2)ccc1O (stereo not given) [Salmeterol]
3.5 | CC(C)(CO)C(O)C(=O)NCCC(=O)O (stereo not given) [Pantothenic acid]
1.4 | O=c1c(O)c(-c2ccc(O)cc2)oc2cc(O)cc(O)c12 [Kaempferol]
2.27 | O=c1[nH]c(=S)ccn1C1OC(CO)C(O)C1O (stereo not given) [4-Thiouridine]
9.86 | O=P(O)(O)OCC1OC(O)C(O)C(O)C1O (stereo not given) [Glucose-6-phosphate]
1.43 | COC(=O)c1cc(O)c(O)c(O)c1 [Methylgallate]
1.53 | O=c1ccc2cccc(O)c2[nH]1 [2,8-Quinolinediol]
1.51 | O=c1ccc2ccccc2[nH]1 [2-Hydroxyquinoline]
1.7 | NC(=O)c1cccnc1 [Nicotinamide]
1.63 | CCCCCCc1ccc(O)cc1O [4-Hexylresorcinol]
1.99 | CC(COc1ccccc1Cc1ccccc1)N1CCCCC1 (stereo not given) [Benproperine]
8.17 | O=C(O)C1NCCC1O (stereo not given) [3-Hydroxyproline]
2.54 | CN(C)CCC(c1ccc(Cl)cc1)c1ccccn1 (stereo not given) [Chlorpheniramine]
7.67 | CC(=O)OCC(N)C(=O)O (stereo not given) [O-Acetylserine]
5.53 | CC(=O)OC1CC2CCC3C(CCC4(C)C3CC([N+]3(C)CCCCC3)C4OC(C)=O)C2(C)CC1N1CCCCC1 (stereo not given) [Vercuronium]
1.03 | O=C1C(CCC(O)c2ccc(F)cc2)C(c2ccc(O)cc2)N1c1ccc(F)cc1 (stereo not given) [Ezetimibe]
2.73 | NC(=O)NC(N)=O [Biuret]
0.99 | CC(=O)OCC=C(C)CCC=C(C)C [Nerylacetate]
2.31 | CN1CCC(=C2c3ccccc3C=Cc3ccccc32)CC1 [Cyproheptadine]
4.56 | Cc1cc2c(s1)Nc1ccccc1N=C2N1CCN(C)CC1 [Olanzapine]
9.72 | O=P(O)(O)OCC1OC(OC2OC(CO)C(O)C(O)C2O)C(O)C(O)C1O (stereo not given) [Trehalose-6-phosphate]
3.28 | COc1nc(C)nc(Cl)c1NC1=NCCN1 [Moxonidine]
1.02 | COC(=O)C1=C(C)NC(C)=C(C(=O)OC)C1c1ccccc1[N+](=O)[O-] [Nifedipine]
8.05 | OCC1OC(OC2(CO)OC(CO)C(O)C2O)C(O)C(O)C1O (stereo not given) [Sucrose]
1.31 | COc1ccc2c(c1OC)C(=O)OC2C1c2c(cc3c(c2OC)OCO3)CCN1C (stereo not given) [Noscapine]

LC retention time [min] | SMILES
5.77 | O=C1CCCCC1=O [1,2-Cyclohexanedione]
1.73 | CC(=O)N1CCN(c2ccc(OCC3COC(Cn4ccnc4)(c4ccc(Cl)cc4Cl)O3)cc2)CC1 (stereo not given) [Ketoconazole]
4.49 | COc1cc(-c2oc3cc(O)cc(O)c3c(=O)c2OC2OC(CO)C(O)C(O)C2O)ccc1O (stereo not given) [Isorhamnetin-3-glucoside]
8.71 | C=Cc1ccc(O)c(OC)c1 [2-Methoxy-4-vinylphenol]
1.41 | COc1cc(C=CC(=O)O)cc(OC)c1O [Sinapic acid]
8.85 | Nc1ncnc2c1ncn2C1OC(CSCCC(N)C(=O)O)C(O)C1O (stereo not given) [S-Adenosyl-homocysteine]
1.49 | CSc1ncnc2nc[nH]c12 [6-Methylmercaptopurine]
1.17 | O=C1N(c2ccccc2)c2ccccc2C1(Cc1ccncc1)Cc1ccncc1 [Linopirdine]
1.18 | O=Cc1ccc(O)cc1 [4-Hydroxybenzaldehyde]
5.45 | CC1CNc2c(cccc2S(=O)(=O)NC(CCCN=C(N)N)C(=O)N2CCC(C)CC2C(=O)O)C1 (stereo not given) [Argatroban]
6.92 | NC(Cc1c[nH]c2ccccc12)C(=O)O (stereo not given) [Tryptophan]
1.36 | COc1cc(/C=C/C(=O)O)ccc1O [Ferulic acid]
1.36 | Oc1cc2ccccc2[nH]1 [2-Indolinone]
8.52 | NC(CCC(=O)NC(Cc1ccc(O)cc1)C(=O)O)C(=O)O (stereo not given) [gamma-Glutamyltyrosine]
1.04 | CCCc1c(OCCCCc2nn[nH]n2)ccc(C(C)=O)c1O [Tomelukast]
7.82 | CNCC(=O)O [Sarcosine]
7.83 | O=C(O)C1CCCN1 (stereo not given) [Proline]
9.58 | NC(CCSSCCC(N)C(=O)O)C(=O)O (stereo not given) [Homocystine]
2.33 | CN1CCC(=C2c3ccccc3CCc3sccc32)CC1 [Pizotifen]
1.2 | NC(=O)OCC(COC(N)=O)c1ccccc1 [Felbamate]
1.11 | c1ccc2scnc2c1 [Benzothiazole]
2.49 | CC1COc2c(C3(N)CC3)c(F)cc3c(=O)c(C(=O)O)cn1c23 (stereo not given) [Pazufloxacin]
1.46 | COCC1OC(n2cc(C)c(=O)[nH]c2=O)CC1O (stereo not given) [5'-O-Methylthymidine]
3.17 | COc1ccccc1OCCNCC(O)COc1cccc2[nH]c3ccccc3c12 (stereo not given) [Carvedilol]

SMILES | LC retention time [min]
CNC(C)Cc1ccccc1 (stereo not given) [Methamphetamine] | 3.33
Cc1ccc(-c2nc3ccc(C)cn3c2CC(=O)N(C)C)cc1 [Zolpidem] | 1.62
COc1ccc(CCN)cc1OC [Homoveratrylamine] | 4.78
CC12CCC3C(CCC4CC(O)CCC43C)C1CCC2O (stereo not given) [Androstane-3,17-diol] | 0.96
CCC1(CC)C(=O)NCC(C)C1=O (stereo not given) [Methyprylon] | 1.18
NCC(=O)c1ccccc1 [2-Aminoacetophenone] | 1.08
CCOC(=O)C1(c2ccccc2)CCN(CCC(C#N)(c2ccccc2)c2ccccc2)CC1 [Diphenoxylate] | 1.41
NC(=NCc1ccc(Cl)cc1)SCCCc1cnc[nH]1 [Clobenpropit] | 6.13
CCCCCC=CCC=CCC=CCC=CCCCC(=O)Nc1ccc(O)cc1 [AM 404] | 0.97
CC(C)(O)C1C2OC(=O)C1C1(O)CC3OC34C(=O)OC2C14C (stereo not given) [Picrotin] | 1.21
CNC1CC(c2ccc(Cl)c(Cl)c2)c2ccccc21 (stereo not given) [Indatraline] | 2.88
CCNC(C)Cc1cccc(C(F)(F)F)c1 (stereo not given) [Fenfluramine] | 2.33
NC(Cc1ccc(O)cc1)C(=O)NC(Cc1ccc(O)cc1)C(=O)NC(Cc1ccc(O)cc1)C(=O)O (stereo not drawn) [Tyr-Tyr-Tyr] | 7.09
COc1ccc2c3c1OC1C(=O)CCC4(O)C(C2)N(C)CCC314 (stereo not given) [Oxycodone] | 4.58
CC(C)(N)Cc1ccccc1 [Phentermine] | 6.23
CCCCCCCCOC(=O)c1ccccc1C(=O)OCCCCCCCC [Dioctyl Phthalate] | 0.96
